Measured values taken from ChEMBL document CHEMBL4706663, “Large-scale isolation and antitumor mechanism evaluation of compounds from the traditional Chinese medicine Cordyceps Militaris” (Eur J Med Chem, 2021).

Columns and labels:
HepG2 = assay: Antiproliferative activity against human HepG2 cells assessed as inhibition of cell growth at 12.5 ug/ml measured after 48 hrs by real-time cell analysis relative to control; type: functional; conditions: read-out: GI
A549 = assay: Antiproliferative activity against human A549 cells assessed as inhibition of cell growth at 12.5 ug/ml measured after 48 hrs by real-time cell analysis relative to control; type: functional; conditions: read-out: GI
Mus musculus [1] = assay: Anti-insomnia activity pentobarbital-induced mouse model of insomnia assessed as sleep rate at 8 mg/kg, ig administered daily for 15 days followed by pentobarbital addition at 1 hr post last dose relative to control; type: functional; conditions: time 15 day
Mus musculus [2] = assay: Anti-insomnia activity pentobarbital-induced mouse model of insomnia assessed as time of sleep duration at 8 mg/kg, ig administered daily for 15 days followed by pentobarbital addition at 1 hr post last dose (reference value: 17.1 +/- 5.15 min); type: functional; conditions: time 15 day
Mus musculus [3] = assay: Anti-insomnia activity pentobarbital-induced mouse model of insomnia assessed as sleep rate at 16 mg/kg, ig administered daily for 15 days followed by pentobarbital addition at 1 hr post last dose relative to control; type: functional; conditions: time 15 day
Mus musculus [4] = assay: Anti-insomnia activity pentobarbital-induced mouse model of insomnia assessed as time of sleep duration at 32 mg/kg, ig administered daily for 15 days followed by pentobarbital addition at 1 hr post last dose (reference value: 17.1 +/- 5.15 min); type: functional; conditions: time 15 day
Mus musculus [5] = assay: Anti-insomnia activity pentobarbital-induced mouse model of insomnia assessed as time of sleep latency at 32 mg/kg, ig administered daily for 15 days followed by pentobarbital addition at 1 hr post last dose (reference value: 8.1 +/- 6.06 min); type: functional; conditions: time 15 day
Mus musculus [6] = assay: Anti-insomnia activity pentobarbital-induced mouse model of insomnia assessed as time of sleep latency at 8 mg/kg, ig administered daily for 15 days followed by pentobarbital addition at 1 hr post last dose (reference value: 8.1 +/- 6.06 min); type: functional; conditions: time 15 day
Mus musculus [7] = assay: Anti-insomnia activity pentobarbital-induced mouse model of insomnia assessed as number of forelimb lifts at 16 mg/kg, ig administered daily for 15 days followed by pentobarbital addition at 1 hr post last dose (reference value: 9.2 +/- 4.31); type: functional; conditions: time 15 day
Mus musculus [8] = assay: Anti-insomnia activity pentobarbital-induced ig dosed mouse model of insomnia assessed as reduction in time before sleep administered daily for 15 days followed by pentobarbital addition at 1 hr post last dose; type: functional, organism-based; conditions: dose 8-32 mg/kg, time 15.0 day
Mus musculus [9] = assay: Anti-insomnia activity pentobarbital-induced mouse model of insomnia assessed as number of forelimb lifts at 8 mg/kg, ig administered daily for 15 days followed by pentobarbital addition at 1 hr post last dose (reference value: 9.2 +/- 4.31); type: functional; conditions: time 15 day
Mus musculus [10] = assay: Anti-insomnia activity pentobarbital-induced mouse model of insomnia assessed as sleep rate at 32 mg/kg, ig administered daily for 15 days followed by pentobarbital addition at 1 hr post last dose relative to control; type: functional; conditions: time 15 day
Mus musculus [11] = assay: Anti-insomnia activity pentobarbital-induced ig dosed mouse model of insomnia assessed as increase in sleep time administered daily for 15 days followed by pentobarbital addition at 1 hr post last dose; type: functional, organism-based; conditions: dose 8-32 mg/kg, time 15.0 day
Mus musculus [12] = assay: Anti-insomnia activity pentobarbital-induced mouse model of insomnia assessed as time of sleep latency at 16 mg/kg, ig administered daily for 15 days followed by pentobarbital addition at 1 hr post last dose (reference value: 8.1 +/- 6.06 min); type: functional; conditions: time 15 day
Mus musculus [13] = assay: Anti-insomnia activity pentobarbital-induced mouse model of insomnia assessed as time of sleep duration at 16 mg/kg, ig administered daily for 15 days followed by pentobarbital addition at 1 hr post last dose (reference value: 17.1 +/- 5.15 min); type: functional; conditions: time 15 day
Mus musculus [14] = assay: Anti-insomnia activity pentobarbital-induced mouse model of insomnia assessed as number of forelimb lifts at 32 mg/kg, ig administered daily for 15 days followed by pentobarbital addition at 1 hr post last dose (reference value: 9.2 +/- 4.31); type: functional; conditions: time 15 day
[15] = Antitumor activity against human H22 cells xenografted in KM mouse assessed as tumor growth inhibition at 20 mg/kg, ig administered every day for 10 days relative to control; conditions: H22, po, 240 h, read-out: TGI
[16] = Toxicity in human Lewis lung cancer cells xenografted BALB/c mouse assessed as survival rate at 20 mg/kg, ig administered every day for 10 days (reference value: 100%); conditions: in vivo, po
[17] = Toxicity in human H22 cells xenografted KM mouse assessed as survival rate at 20 mg/kg, ig administered every day for 10 days relative to control; conditions: in vivo, po
[18] = Antitumor activity against human Lewis lung cancer cells xenografted in BALB/c mouse assessed as tumor growth inhibition at 20 mg/kg, ig administered every day for 10 days relative to control; conditions: Lewis lung carcinoma, po, 240 h, read-out: TGI
Mus musculus [19] = assay: Anti-insomnia activity pentobarbital-induced mouse model of insomnia assessed as time of sleep latency at 0.029 mg/kg, ig administered daily for 15 days followed by pentobarbital addition at 1 hr post last dose (reference value: 8.1 +/- 6.06 min); type: functional; conditions: time 15 day
Mus musculus [20] = assay: Anti-insomnia activity pentobarbital-induced mouse model of insomnia assessed as sleep rate at 0.029 mg/kg, ig administered daily for 15 days followed by pentobarbital addition at 1 hr post last dose relative to control; type: functional; conditions: time 15 day
Mus musculus [21] = assay: Anti-insomnia activity pentobarbital-induced mouse model of insomnia assessed as number of forelimb lifts at 0.029 mg/kg, ig administered daily for 15 days followed by pentobarbital addition at 1 hr post last dose (reference value: 9.2 +/- 4.31); type: functional; conditions: time 15 day
Mus musculus [22] = assay: Anti-insomnia activity pentobarbital-induced mouse model of insomnia assessed as time of sleep duration at 0.029 mg/kg, ig administered daily for 15 days followed by pentobarbital addition at 1 hr post last dose (reference value: 17.1 +/- 5.15 min); type: functional; conditions: time 15 day

CC(C)[C@@H](C)/C=C/[C@@H](C)[C@H]1CC[C@H]2C3=CC(=O)[C@@]4(O)C[C@@H](O)CC[C@]4(C)[C@H]3CC[C@]12C
inhibition of growth at 12.5 µg/mL (HepG2): 100% | inhibition of growth at 12.5 µg/mL (A549): 100%

OCCNc1ncnc2c1ncn2[C@@H]1O[C@H](CO)[C@@H](O)[C@H]1O
Activity (Mus musculus [1]): 20% | Time (Mus musculus [2]): 24.2 min | Activity (Mus musculus [3]): 40% | Time (Mus musculus [4]): 34.5 min | Time (Mus musculus [5]): 5.1 min | Time (Mus musculus [6]): 5.7 min | Activity (Mus musculus [7]): 3.9 | Activity (Mus musculus [8]): Dose-dependent effect | Activity (Mus musculus [9]): 9 | Activity (Mus musculus [10]): 60% | Activity (Mus musculus [11]): Dose-dependent effect | Time (Mus musculus [12]): 5.2 min | Time (Mus musculus [13]): 26.2 min | Activity (Mus musculus [14]): 3.3

C/C(=C\[C@@H](C)[C@H]1CC[C@@H]2[C@]1(C)CC[C@H]1[C@]23C=C[C@]2(C[C@@H](O)CC[C@]12C)OO3)[C@H](C)C(C)C
inhibition of growth at 12.5 µg/mL (HepG2): 100% | inhibition of growth at 12.5 µg/mL (A549): 100%

O=P1(N(CCCl)CCCl)NCCCO1 (stereo unspecified) [CYCLOPHOSPHAMIDE ANHYDROUS]
inhibition in vivo at 20 mg/kg [15]: 52.9% | survival at 240 h [16]: 100% | survival at 240 h [17]: 100% | inhibition in vivo at 20 mg/kg [18]: 46.3%

Clc1ccc2c(c1)C(c1ccccc1)=NCc1nncn1-2 [ESTAZOLAM]
Time (Mus musculus [19]): 5.9 min | Activity (Mus musculus [20]): 60% | Activity (Mus musculus [21]): 4.1 | Time (Mus musculus [22]): 26 min
